Test results taken from paper PMC7466159, “Anti-Metastasis Fascin Inhibitors Decrease the Growth of Specific Subtypes of Cancers” (Cancers, 2020).

What was measured:
[1] = system: MDA-MB-468 triple-negative breast cancer cells; assay: Cell growth assay, MDA-MB-468; format: cell-based; settings: MDA-MB-468 cells in culture, 10% serum
[2] = system: BT-20 triple-negative breast cancer cells; assay: Cell growth assay, BT-20; format: cell-based; settings: BT-20 cells in culture, 10% serum
[3] = system: HCC38 triple-negative breast cancer cells; assay: Cell growth assay, HCC38; format: cell-based; settings: HCC38 cells in culture, 10% serum
[4] = system: MDA-MB-468 tumor cells; assay: MDA-MB-468 breast cancer model in NSG mice (tumor growth, overall survival); format: in vivo; settings: treatment from Day 14, compared with the control group
Experimental: MDA-MB-468 cells and HCC38 cells grew in the presence of EGF with or without NP-G2-044. […] Finally, we used the animal model to investigate whether the primary tumor growth of MDA-MB-468 cells was sensitive to fascin inhibitors. MDA-MB-468 tumor cells were implanted into the mammary gland of NSG mice, and these mice were randomly divided into four groups. One group of mice was used as control (Figure 6I). The second group of mice was treated with the fascin inhibitor NP-G2-044 (Figure 6I). The third group was treated with the EGFR inhibitor gefitnib (Figure 6I), and the fourth group was treated with the combination of NP-G2-044 + gefitinib (Figure 6I). […] We dissected the primary tumor tissues 55 days after the tumor implantation from some mice. […] Furthermore, the overall survival of the mice was analyzed (Figure 6K).
For the breast cancer model, MDA-MB-468 cells (5 × 10^6) suspended in PBS-matrigel (v/v, 1:1) were injected subcutaneously into the abdominal mammary gland area of female NSG mice on Day 0 as previously described. Starting on Day 14, NP-G2-044 was given once a day for 5 days every week by gavage at 300 mg kg^−1 per mouse until their death. Starting on Day 14, gefitinib was given twice weekly by gavage at 150 mg kg^−1 per mouse until their death. The control solvent was given once a day for 5 days every week by gavage according to their body weight until their death. […] The primary tumor volume was calculated as length × width^2 ×π/6.

COc1cc2ncnc(Nc3ccc(F)c(Cl)c3)c2cc1OCCCN1CCOCC1 [gefitinib, reference compound]
growth sensitivity [1]: sensitive
growth sensitivity [2]: sensitive
growth sensitivity [3]: sensitive
growth of primary tumors [4]: reduced the growth of primary tumors to the same degree
increase of median overall survival [4]: ~ 50%
